Measurements taken from article PMC12300041, “Tricyclic Isatin Derivatives as Anti-Inflammatory Compounds with High Kinase Binding Affinity” (Molecules, 2025).

Experiments:
Assay in all cases: KINOMEscan
Format in all cases: binding
ACVR2A = molecular target: T1, ACVR2A (Homo sapiens, UniProt P27037)
T1 construct: purchased Eurofins DiscoverX KINOMEscan
Procedure, shortened: (§1)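 Measured as Kd. Free kinase after 1 h at room temperature was captured on immobilized ligand and detected by qPCR; compound titrated in 12 half-log steps from 33 μM.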

CDK5 = molecular target: T2, CDK5 (Homo sapiens, UniProt Q00535)
T2 construct: purchased Eurofins DiscoverX KINOMEscan
Procedure, shortened: (§2)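 1 h RT binding → immobilized-ligand capture of free kinase → qPCR quantitation. Kd: 12 half-log points, max 33 μM.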

CAMK1B = molecular target: T3, CAMK1B (Homo sapiens, UniProt Q6P2M8)
T3 construct: purchased Eurofins DiscoverX KINOMEscan
Procedure, shortened: as §1

ABL1 (T315I)-P = molecular target: T4, ABL1 (T315I)-P (Homo sapiens, UniProt P00519, T315I)
T4 construct: purchased Eurofins DiscoverX KINOMEscan
Procedure, shortened: as §2

MYO3B = molecular target: T5, MYO3B (Homo sapiens, UniProt Q8WXR4)
T5 construct: purchased Eurofins DiscoverX KINOMEscan
Procedure, shortened: as §1

ABL1 (Q252H)-P = molecular target: T6, ABL1 (Q252H)-P (Homo sapiens, UniProt P00519, Q252H)
T6 construct: purchased Eurofins DiscoverX KINOMEscan
Procedure, shortened: as §2

JAK2 (JH1domain-cat.) = molecular target: T7, JAK2 (JH1domain-cat.) (Homo sapiens, UniProt O60674)
T7 construct: JAK2 (JH1domain-cat.); purchased Eurofins DiscoverX KINOMEscan
Procedure, shortened: as §1

PAK3 = molecular target: T8, PAK3 (Homo sapiens, UniProt O75914)
T8 construct: purchased Eurofins DiscoverX KINOMEscan
Procedure, shortened: as §2

PIK3CD = molecular target: T9, PIK3CD (Homo sapiens, UniProt O00329)
T9 construct: purchased Eurofins DiscoverX KINOMEscan
Procedure, shortened: as §2

NEK6 = molecular target: T10, NEK6 (Homo sapiens, UniProt Q9HC98)
T10 construct: purchased Eurofins DiscoverX KINOMEscan
Procedure, shortened: as §2

CAMKK2 = molecular target: T11, CAMKK2 (Homo sapiens, UniProt Q96RR4)
T11 construct: purchased Eurofins DiscoverX KINOMEscan
Procedure, shortened: as §1

BRK = molecular target: T12, BRK (Homo sapiens, UniProt Q13882)
T12 construct: purchased Eurofins DiscoverX KINOMEscan
Procedure, shortened: as §2

ABL1 (Q252H)-non-P = molecular target: T13, ABL1 (Q252H)-non-P (Homo sapiens, UniProt P00519, Q252H)
T13 construct: purchased Eurofins DiscoverX KINOMEscan
Procedure, shortened: as §2

ACVR1 = molecular target: T14, ACVR1 (Homo sapiens, UniProt Q04771)
T14 construct: purchased Eurofins DiscoverX KINOMEscan
Procedure, shortened: as §2

HCK = molecular target: T15, HCK (Homo sapiens, UniProt P08631)
T15 construct: purchased Eurofins DiscoverX KINOMEscan
Procedure, shortened: as §1

YANK2 = molecular target: T16, YANK2 (Homo sapiens, UniProt Q9NY57)
T16 construct: purchased Eurofins DiscoverX KINOMEscan
Procedure, shortened: as §2

CAMK2D = molecular target: T17, CAMK2D (Homo sapiens, UniProt Q13557)
T17 construct: purchased Eurofins DiscoverX KINOMEscan
Procedure, shortened: as §2

CAMK2G = molecular target: T18, CAMK2G (Homo sapiens, UniProt Q13555)
T18 construct: purchased Eurofins DiscoverX KINOMEscan
Procedure, shortened: as §1

AKT2 = molecular target: T19, AKT2 (Homo sapiens, UniProt P31751)
T19 construct: purchased Eurofins DiscoverX KINOMEscan
Procedure, shortened: as §2

BMPR1A = molecular target: T20, BMPR1A (Homo sapiens, UniProt P36894)
T20 construct: purchased Eurofins DiscoverX KINOMEscan
Procedure, shortened: as §2

AAK1 = molecular target: T21, AAK1 (Homo sapiens, UniProt Q2M2I8)
T21 construct: purchased Eurofins DiscoverX KINOMEscan
Procedure, shortened: as §2

TSSK3 = molecular target: T22, TSSK3 (Homo sapiens, UniProt Q96PN8)
T22 construct: purchased Eurofins DiscoverX KINOMEscan
Procedure, shortened: as §2

CSNK1A1L = molecular target: T23, CSNK1A1L (Homo sapiens, UniProt Q8N752)
T23 construct: purchased Eurofins DiscoverX KINOMEscan
Procedure, shortened: as §1

PKAC-β = molecular target: T24, PKAC-β (Homo sapiens, UniProt P22694)
T24 construct: purchased Eurofins DiscoverX KINOMEscan
Procedure, shortened: as §2

EGFR (L858R) = molecular target: T25, EGFR (L858R) (Homo sapiens, UniProt P00533, L858R)
T25 construct: purchased Eurofins DiscoverX KINOMEscan
Procedure, shortened: as §1

TSSK1B = molecular target: T26, TSSK1B (Homo sapiens, UniProt Q9BXA7)
T26 construct: purchased Eurofins DiscoverX KINOMEscan
Procedure, shortened: as §2

PDGFRB = molecular target: T27, PDGFRB (Homo sapiens, UniProt P09619)
T27 construct: purchased Eurofins DiscoverX KINOMEscan
Procedure, shortened: as §2

EPHA3 = molecular target: T28, EPHA3 (Homo sapiens, UniProt P29320)
T28 construct: purchased Eurofins DiscoverX KINOMEscan
Procedure, shortened: as §2

CAMKK1 = molecular target: T29, CAMKK1 (Homo sapiens, UniProt Q8N5S9)
T29 construct: purchased Eurofins DiscoverX KINOMEscan
Procedure, shortened: as §2

CSNK1G2 = molecular target: T30, CSNK1G2 (Homo sapiens, UniProt P78368)
T30 construct: purchased Eurofins DiscoverX KINOMEscan
Procedure, shortened: as §2

MYLK4 = molecular target: T31, MYLK4 (Homo sapiens, UniProt Q86YV6)
T31 construct: purchased Eurofins DiscoverX KINOMEscan
Procedure, shortened: as §2

EPHB4 = molecular target: T32, EPHB4 (Homo sapiens, UniProt P54760)
T32 construct: purchased Eurofins DiscoverX KINOMEscan
Procedure, shortened: as §1

NDR2 = molecular target: T33, NDR2 (Homo sapiens, UniProt Q9Y2H1)
T33 construct: purchased Eurofins DiscoverX KINOMEscan
Procedure, shortened: as §1

NEK11 = molecular target: T34, NEK11 (Homo sapiens, UniProt Q8NG66)
T34 construct: purchased Eurofins DiscoverX KINOMEscan
Procedure, shortened: as §1

MLK1 = molecular target: T35, MLK1 (Homo sapiens, UniProt P80192)
T35 construct: purchased Eurofins DiscoverX KINOMEscan
Procedure, shortened: as §2

FGFR1 = molecular target: T36, FGFR1 (Homo sapiens, UniProt P11362)
T36 construct: purchased Eurofins DiscoverX KINOMEscan
Procedure, shortened: as §2

TGFBR2 = molecular target: T37, TGFBR2 (Homo sapiens, UniProt P37173)
T37 construct: purchased Eurofins DiscoverX KINOMEscan
Procedure, shortened: as §1

BTK = molecular target: T38, BTK (Homo sapiens, UniProt Q06187)
T38 construct: purchased Eurofins DiscoverX KINOMEscan
Procedure, shortened: as §2

MST3 = molecular target: T39, MST3 (Homo sapiens, UniProt Q9Y6E0)
T39 construct: purchased Eurofins DiscoverX KINOMEscan
Procedure, shortened: as §2

KIT (D816H) = molecular target: T40, KIT (D816H) (Homo sapiens, UniProt P10721, D816H)
T40 construct: purchased Eurofins DiscoverX KINOMEscan
Procedure, shortened: as §2

T17 sequence (Q13557 whole entry): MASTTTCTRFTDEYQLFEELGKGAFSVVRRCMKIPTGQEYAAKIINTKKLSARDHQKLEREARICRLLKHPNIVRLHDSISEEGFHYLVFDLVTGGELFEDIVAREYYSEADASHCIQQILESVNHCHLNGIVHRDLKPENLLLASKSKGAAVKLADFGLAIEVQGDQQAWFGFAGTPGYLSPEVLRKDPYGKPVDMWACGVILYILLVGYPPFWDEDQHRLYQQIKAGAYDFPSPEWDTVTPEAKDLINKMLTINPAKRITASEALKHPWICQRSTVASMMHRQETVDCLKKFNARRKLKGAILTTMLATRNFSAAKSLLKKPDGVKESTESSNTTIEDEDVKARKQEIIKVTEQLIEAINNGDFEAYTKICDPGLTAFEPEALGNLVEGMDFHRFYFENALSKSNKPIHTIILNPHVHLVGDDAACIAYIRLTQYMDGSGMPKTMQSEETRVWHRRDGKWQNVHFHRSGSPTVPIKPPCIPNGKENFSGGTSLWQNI
T11 sequence (Q96RR4 whole entry): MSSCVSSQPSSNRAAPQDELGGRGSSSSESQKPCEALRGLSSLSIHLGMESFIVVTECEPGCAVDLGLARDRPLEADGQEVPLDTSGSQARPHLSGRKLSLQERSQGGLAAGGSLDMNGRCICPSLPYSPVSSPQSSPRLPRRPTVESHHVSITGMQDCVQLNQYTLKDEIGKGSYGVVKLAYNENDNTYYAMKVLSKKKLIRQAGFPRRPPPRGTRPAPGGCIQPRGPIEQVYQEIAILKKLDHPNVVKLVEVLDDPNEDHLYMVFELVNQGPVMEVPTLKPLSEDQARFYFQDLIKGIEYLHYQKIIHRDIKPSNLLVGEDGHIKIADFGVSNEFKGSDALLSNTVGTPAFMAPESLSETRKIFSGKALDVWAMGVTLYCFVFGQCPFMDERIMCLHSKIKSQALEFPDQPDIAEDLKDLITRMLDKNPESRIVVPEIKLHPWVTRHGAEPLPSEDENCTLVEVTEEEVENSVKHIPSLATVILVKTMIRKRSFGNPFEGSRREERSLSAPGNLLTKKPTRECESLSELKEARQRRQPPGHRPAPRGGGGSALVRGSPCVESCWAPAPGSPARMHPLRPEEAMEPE
T26 sequence (Q9BXA7 whole entry): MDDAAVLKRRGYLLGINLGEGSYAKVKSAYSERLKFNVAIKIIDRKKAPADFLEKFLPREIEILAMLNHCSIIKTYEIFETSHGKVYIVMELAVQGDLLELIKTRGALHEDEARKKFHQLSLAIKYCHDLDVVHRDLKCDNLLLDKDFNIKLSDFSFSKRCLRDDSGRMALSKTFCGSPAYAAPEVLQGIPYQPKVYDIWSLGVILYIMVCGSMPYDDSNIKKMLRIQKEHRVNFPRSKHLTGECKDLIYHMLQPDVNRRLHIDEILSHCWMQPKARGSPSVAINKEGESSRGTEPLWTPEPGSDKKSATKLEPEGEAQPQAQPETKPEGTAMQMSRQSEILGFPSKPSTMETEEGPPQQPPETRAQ
T12 sequence (Q13882 whole entry): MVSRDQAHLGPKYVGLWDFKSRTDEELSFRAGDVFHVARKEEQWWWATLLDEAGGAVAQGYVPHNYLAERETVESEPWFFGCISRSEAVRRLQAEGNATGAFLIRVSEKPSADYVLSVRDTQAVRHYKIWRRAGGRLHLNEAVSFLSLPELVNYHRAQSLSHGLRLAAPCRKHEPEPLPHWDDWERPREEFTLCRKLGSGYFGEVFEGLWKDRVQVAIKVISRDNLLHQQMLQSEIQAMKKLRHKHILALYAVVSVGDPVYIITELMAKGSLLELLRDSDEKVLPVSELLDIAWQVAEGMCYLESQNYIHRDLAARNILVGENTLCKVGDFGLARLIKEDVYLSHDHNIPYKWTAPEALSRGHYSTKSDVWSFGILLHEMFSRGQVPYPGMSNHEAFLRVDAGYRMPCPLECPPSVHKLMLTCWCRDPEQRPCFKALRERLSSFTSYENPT
T7 sequence (O60674 840-1132 limits assumed): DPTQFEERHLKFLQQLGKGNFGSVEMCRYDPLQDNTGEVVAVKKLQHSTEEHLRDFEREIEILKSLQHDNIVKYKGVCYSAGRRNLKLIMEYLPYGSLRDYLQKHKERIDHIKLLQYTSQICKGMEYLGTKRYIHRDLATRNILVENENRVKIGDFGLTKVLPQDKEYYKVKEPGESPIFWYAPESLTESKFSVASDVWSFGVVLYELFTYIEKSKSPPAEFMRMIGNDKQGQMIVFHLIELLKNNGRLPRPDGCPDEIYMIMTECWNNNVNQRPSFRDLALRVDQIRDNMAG
T21 sequence (Q2M2I8 whole entry): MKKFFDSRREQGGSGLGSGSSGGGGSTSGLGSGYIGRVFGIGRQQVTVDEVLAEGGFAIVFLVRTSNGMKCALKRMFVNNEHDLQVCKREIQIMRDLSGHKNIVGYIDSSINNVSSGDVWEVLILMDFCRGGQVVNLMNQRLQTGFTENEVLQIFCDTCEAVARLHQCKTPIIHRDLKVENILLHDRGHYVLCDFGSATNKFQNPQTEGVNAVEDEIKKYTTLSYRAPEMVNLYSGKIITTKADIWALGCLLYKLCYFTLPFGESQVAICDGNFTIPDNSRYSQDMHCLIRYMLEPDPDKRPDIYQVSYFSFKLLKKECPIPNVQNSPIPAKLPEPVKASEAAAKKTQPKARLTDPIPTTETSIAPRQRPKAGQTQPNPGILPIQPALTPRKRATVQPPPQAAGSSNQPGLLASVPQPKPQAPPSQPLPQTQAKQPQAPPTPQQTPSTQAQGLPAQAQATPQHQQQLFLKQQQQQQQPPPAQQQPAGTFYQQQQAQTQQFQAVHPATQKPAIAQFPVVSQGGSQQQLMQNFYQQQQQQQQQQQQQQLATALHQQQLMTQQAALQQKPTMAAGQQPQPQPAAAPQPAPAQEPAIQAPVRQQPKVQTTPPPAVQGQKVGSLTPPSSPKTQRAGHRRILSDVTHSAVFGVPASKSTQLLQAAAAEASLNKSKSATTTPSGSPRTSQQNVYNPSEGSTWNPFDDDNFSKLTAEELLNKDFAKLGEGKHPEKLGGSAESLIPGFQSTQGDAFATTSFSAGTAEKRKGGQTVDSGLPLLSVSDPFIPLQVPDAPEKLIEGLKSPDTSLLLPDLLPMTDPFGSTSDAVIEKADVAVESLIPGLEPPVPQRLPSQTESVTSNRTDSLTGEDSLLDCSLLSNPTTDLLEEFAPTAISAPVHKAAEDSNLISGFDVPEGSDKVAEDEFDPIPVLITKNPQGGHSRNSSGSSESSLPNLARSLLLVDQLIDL
T16 sequence (Q9NY57 whole entry): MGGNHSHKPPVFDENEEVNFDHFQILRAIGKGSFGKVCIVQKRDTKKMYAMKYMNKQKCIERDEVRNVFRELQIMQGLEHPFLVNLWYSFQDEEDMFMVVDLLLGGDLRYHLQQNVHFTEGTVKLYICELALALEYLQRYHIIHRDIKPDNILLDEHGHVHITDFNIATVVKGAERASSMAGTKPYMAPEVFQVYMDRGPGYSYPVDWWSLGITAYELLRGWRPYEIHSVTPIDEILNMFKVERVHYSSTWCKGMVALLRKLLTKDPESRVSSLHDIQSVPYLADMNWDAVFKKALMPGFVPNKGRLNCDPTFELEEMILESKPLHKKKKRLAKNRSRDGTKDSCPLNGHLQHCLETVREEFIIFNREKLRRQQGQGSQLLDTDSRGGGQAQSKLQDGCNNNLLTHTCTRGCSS
T25 sequence (P00533 25-1210 L858R): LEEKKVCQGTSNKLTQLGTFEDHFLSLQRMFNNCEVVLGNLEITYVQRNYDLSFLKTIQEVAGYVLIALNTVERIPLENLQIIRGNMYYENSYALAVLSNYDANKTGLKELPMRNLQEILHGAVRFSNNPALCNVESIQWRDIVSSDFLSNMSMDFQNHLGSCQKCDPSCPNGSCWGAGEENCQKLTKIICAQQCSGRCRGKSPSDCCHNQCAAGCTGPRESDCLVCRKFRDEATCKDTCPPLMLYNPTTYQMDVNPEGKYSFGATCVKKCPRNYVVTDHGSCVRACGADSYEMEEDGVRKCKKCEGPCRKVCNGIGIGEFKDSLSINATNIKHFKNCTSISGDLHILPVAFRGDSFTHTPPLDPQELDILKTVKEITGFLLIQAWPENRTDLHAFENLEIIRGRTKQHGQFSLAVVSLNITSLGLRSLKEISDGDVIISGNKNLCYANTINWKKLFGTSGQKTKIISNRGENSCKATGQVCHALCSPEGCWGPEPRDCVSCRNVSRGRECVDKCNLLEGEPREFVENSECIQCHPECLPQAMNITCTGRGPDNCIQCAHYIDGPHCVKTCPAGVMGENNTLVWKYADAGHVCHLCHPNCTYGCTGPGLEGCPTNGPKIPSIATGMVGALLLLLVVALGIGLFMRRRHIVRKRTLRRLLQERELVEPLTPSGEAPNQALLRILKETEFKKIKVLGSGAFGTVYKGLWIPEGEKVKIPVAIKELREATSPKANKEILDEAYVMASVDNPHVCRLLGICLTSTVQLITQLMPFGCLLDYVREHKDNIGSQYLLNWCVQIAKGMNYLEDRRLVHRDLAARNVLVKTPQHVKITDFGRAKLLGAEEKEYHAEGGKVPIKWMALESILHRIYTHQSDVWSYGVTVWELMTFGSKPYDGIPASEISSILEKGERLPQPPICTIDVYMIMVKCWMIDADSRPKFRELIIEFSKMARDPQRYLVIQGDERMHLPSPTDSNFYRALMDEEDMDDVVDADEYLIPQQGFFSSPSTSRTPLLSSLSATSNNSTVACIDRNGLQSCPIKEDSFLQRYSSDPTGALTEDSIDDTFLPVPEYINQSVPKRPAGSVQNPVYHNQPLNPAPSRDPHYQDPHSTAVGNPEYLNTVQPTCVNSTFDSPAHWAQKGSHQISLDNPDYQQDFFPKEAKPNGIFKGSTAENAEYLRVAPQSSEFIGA

Compound `O=C1Nc2c(cc([N+](=O)[O-])c3c2CCCC3)C1=NO` [Compound 5d, 3-(Hydroxyimino)-5-nitro-1,3,6,7,8,9-hexahydro-2H-benzo[g]indol-2-one] has an inhibition at 10 µM (ACVR2A) of 10%, an inhibition at 10 µM (CDK5) of 1% and an inhibition at 10 µM (CAMK1B) of 12%. For the same compound, the inhibition at 10 µM (ABL1 (T315I)-P) was 17%, the inhibition at 10 µM (MYO3B) was 30% and the inhibition at 10 µM (ABL1 (Q252H)-P) was 47%. The inhibition at 10 µM (JAK2 (JH1domain-cat.)) was 42%, the inhibition at 10 µM (PAK3) was 67% and the inhibition at 10 µM (PIK3CD) was 42%. The inhibition at 10 µM (NEK6) was 17%, the inhibition at 10 µM (CAMKK2) was 56% and the inhibition at 10 µM (BRK) was 0%. It also gave an inhibition at 10 µM (ABL1 (Q252H)-non-P) of 55%, an inhibition at 10 µM (ACVR1) of 2% and an inhibition at 10 µM (HCK) of 20%. The inhibition at 10 µM (YANK2) was 0%, the inhibition at 10 µM (CAMK2D) was 51% and the inhibition at 10 µM (CAMK2G) was 25%. The inhibition at 10 µM (AKT2) was 0%, the inhibition at 10 µM (BMPR1A) was 18% and the inhibition at 10 µM (AAK1) was 91.8%. It also gave an inhibition at 10 µM (TSSK3) of 61%, an inhibition at 10 µM (CSNK1A1L) of 63% and an inhibition at 10 µM (PKAC-β) of 2%. The inhibition at 10 µM (EGFR (L858R)) was 17%, the inhibition at 10 µM (TSSK1B) was 0% and the inhibition at 10 µM (PDGFRB) was 0%. The inhibition at 10 µM (EPHA3) was 45%, the inhibition at 10 µM (CAMKK1) was 9% and the inhibition at 10 µM (CSNK1G2) was 90%. It also gave an inhibition at 10 µM (MYLK4) of 7%, an inhibition at 10 µM (EPHB4) of 0% and an inhibition at 10 µM (NDR2) of 13%. It also gave an inhibition at 10 µM (NEK11) of 46%, an inhibition at 10 µM (MLK1) of 18% and an inhibition at 10 µM (FGFR1) of 5%. For the same compound, the inhibition at 10 µM (TGFBR2) was 24%, the inhibition at 10 µM (BTK) was 39% and the inhibition at 10 µM (MST3) was 62%. The inhibition at 10 µM (KIT (D816H)) was 1%.
